Data from patent US11866450B2, “Modulators of Cystic Fibrosis Transmembrane Conductance regulator, pharmaceutical compositions, methods of treatment, and process for making the modulators” (priority 2018, dated 2024).

Target: CFTR-mediated chloride transport (Homo sapiens, UniProt P13569)
Format: cell-based
Settings: enteroid cells incubated with test compound 18-24 hours, acute 10 μM forskolin and 300 nM Compound III; for Max. Activity: % of chloride transport with 3 μM Compound A, 3 μM Compound II and 300 nM acute Compound III triple combination control
Summary of the method: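 Membrane-potential fluorescence AUC over 15 min quantified CFTR chloride transport after acute forskolin (10 μM), IBMX (100 μM) and Compound III (300 nM) in chloride-free buffer. Human enteroid cells were pretreated with compound for 18–24 h; % Activity is relative to 3 μM Compound A + 3 μM Compound II + 300 nM Compound III.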

CFTR-mediated chloride transport, sequence (P13569 whole entry, looked up): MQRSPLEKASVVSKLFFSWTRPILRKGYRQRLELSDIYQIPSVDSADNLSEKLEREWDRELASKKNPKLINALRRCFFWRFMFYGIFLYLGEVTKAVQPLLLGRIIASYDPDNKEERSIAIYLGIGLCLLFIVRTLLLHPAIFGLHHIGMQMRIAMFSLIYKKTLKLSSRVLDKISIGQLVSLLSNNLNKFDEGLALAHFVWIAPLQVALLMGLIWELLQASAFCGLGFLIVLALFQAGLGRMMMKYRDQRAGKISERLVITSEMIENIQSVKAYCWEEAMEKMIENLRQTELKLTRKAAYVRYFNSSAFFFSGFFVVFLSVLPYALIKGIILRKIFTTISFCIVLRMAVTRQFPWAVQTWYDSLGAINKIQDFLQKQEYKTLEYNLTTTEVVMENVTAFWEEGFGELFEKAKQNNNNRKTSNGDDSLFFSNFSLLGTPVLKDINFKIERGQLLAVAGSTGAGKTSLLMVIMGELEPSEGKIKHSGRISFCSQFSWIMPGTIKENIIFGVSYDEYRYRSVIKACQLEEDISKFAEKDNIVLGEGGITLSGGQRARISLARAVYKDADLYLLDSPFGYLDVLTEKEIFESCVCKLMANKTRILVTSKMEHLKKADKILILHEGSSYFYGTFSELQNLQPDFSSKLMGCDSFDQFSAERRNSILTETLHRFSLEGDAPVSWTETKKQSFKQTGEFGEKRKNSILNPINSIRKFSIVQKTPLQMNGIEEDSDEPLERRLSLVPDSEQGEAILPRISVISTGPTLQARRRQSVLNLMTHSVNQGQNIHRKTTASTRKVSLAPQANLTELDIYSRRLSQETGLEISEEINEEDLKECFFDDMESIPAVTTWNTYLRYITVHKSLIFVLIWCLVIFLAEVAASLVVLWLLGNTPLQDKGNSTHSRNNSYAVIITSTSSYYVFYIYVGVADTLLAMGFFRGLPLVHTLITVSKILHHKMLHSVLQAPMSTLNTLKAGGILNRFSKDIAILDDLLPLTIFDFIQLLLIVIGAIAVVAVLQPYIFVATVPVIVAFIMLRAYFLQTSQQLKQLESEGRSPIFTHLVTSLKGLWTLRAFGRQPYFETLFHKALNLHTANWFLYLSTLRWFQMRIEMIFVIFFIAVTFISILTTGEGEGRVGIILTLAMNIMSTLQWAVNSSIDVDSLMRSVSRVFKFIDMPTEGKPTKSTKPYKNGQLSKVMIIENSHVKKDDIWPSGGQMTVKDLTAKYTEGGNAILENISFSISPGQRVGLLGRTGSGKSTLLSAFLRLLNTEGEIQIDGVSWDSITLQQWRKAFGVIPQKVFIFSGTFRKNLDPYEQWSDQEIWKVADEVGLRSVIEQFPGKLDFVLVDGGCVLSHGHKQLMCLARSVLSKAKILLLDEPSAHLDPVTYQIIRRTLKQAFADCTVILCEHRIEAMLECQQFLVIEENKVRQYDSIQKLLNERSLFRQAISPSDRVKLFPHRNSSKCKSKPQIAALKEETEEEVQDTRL

Compound	EC50 [µM]	Max. Activity
CC1(C)C[C@H]2CCCCNc3cccc(n3)S(=O)(=O)NC(=O)c3ccc(-n4cc(OCCC5(C(F)(F)F)CC5)cn4)nc3N1C2 (single isomer, unassigned) [Compound 82, 12,12-Dimethyl-8-(4-{2-[1-(trifluoromethyl)cyclopropyl]ethoxy}-1H-pyrazol-1-yl)-2λ^6-thia-3,9,11,19,24-pentaazatetracyclo[18.3.1.111,14.05,10]pentacosa-1(23),5,7,9,20(24),21-hexaene-2,2,4-trione]	> 3	+ (+ is <30%)
CN1CCCCC2CN(c3nc(-n4ccc(OCCC5(C(F)(F)F)CC5)n4)ccc3C(=O)NS(=O)(=O)c3ccc1nc3)C(C)(C)C2 (centres unmarked) [Compound 132, 12,12,19-trimethyl-8-(3-{2-[1-(trifluoromethyl)cyclopropyl]ethoxy}-1H-pyrazol-1-yl)-2λ^6-thia-3,9,11,19,21-pentaazatetracyclo[18.2.2.111,14.05,10]pentacosa-1(23),5,7,9,20(24),21-hexaene-2,2,4-trione]	< 1	++ (++ is 30-60%)
CC1(C)C[C@H]2CCNc3cccc(n3)S(=O)(=O)NC(=O)c3ccc(-n4ccc(OCCCC5(C(F)(F)F)CC5)n4)nc3N1C2 (single isomer, unassigned) [Compound 234, 7,7-dimethyl-11-(3-{3-[1-(trifluoromethyl)cyclopropyl]propoxy}-1H-pyrazol-1-yl)-17λ^6-thia-2,8,10,16,22-pentaazatetracyclo[16.3.1.15,8.09,14]tricosa-1(22),9,11,13,18,20-hexaene-15,17,17-trione]	< 1	++ (++ is 30-60%)
CC(C)(C)CCN1CCN(c2ccc3c(n2)N2C(CCCNc4cccc(n4)S(=O)(=O)NC3=O)CCC2(C)C)C1=O (centres unmarked) [Compound 232, 8-[3-(3,3-dimethylbutyl)-2-oxoimidazolidin-1-yl]-12,12-dimethyl-2λ^6-thia-3,9,11,19,24-pentaazatetracyclo[18.3.1.05,10.011,15]tetracosa-1(23),5,7,9,20(24),21-hexaene-2,2,4-trione]	> 3	+ (+ is <30%)
[2H]c1ccc2nc1NCCC[C@@H]1CN(c3nc(-n4ccc(OCC([2H])([2H])C5C6(CC6)C56CC6)n4)ccc3C(=O)NS2(=O)=O)C(C)(C)C1 [Compound 298, (14S)-8-[3-(2-{dispiro[2.0.2.1]heptan-7-yl}-2,2-dideuterio-ethoxy)-1H-pyrazol-1-yl]-12,12-dimethyl(20-deuterio)-2λ^6-thia-3,9,11,18,23-pentaazatetracyclo[17.3.1.111,14.05,10]tetracosa-1(23),5,7,9,19,21-hexaene-2,2,4-trione]	< 1	+++ (+++ is >60%)
CC1(C)C[C@H]2CCCCn3cc(cn3)S(=O)(=O)NC(=O)c3ccc(-n4ccc(OCCC5(C(F)(F)F)CC5)n4)nc3N1C2 (single isomer, unassigned) [Compound 135, 21,21-dimethyl-4-(3-{2-[1-(trifluoromethyl)cyclopropyl]ethoxy}-1H-pyrazol-1-yl)-10λ^6-thia-1,3,9,13,14-pentaazatetracyclo[17.2.1.111,14.02,7]tricosa-2,4,6,11(23),12-pentaene-8,10,10-trione]	< 1	+++ (+++ is >60%)
Cc1cn2nc1S(=O)(=O)NC(=O)c1ccc(-n3ccc(OCCC(C4CC4)C4CC4)n3)nc1N1C[C@H](CCC2)CC1(C)C (single isomer, unassigned) [Compound 201, 4-[3-(3,3-Dicyclopropylpropoxy)-1H-pyrazol-1-yl]-12,20,20-trimethyl-10λ^6-thia-1,3,9,14,22-pentaazatetracyclo[16.2.1.111,14.02,7]docosa-2(7),3,5,11(22),12-pentaene-8,10,10-trione]	> 3	+ (+ is <30%)
